Patent US11560376B2, “Amino acid compounds and methods of use” (Pliant Therapeutics, Inc., priority 2018, dated 2023)

Target: recombinant human integrin αvβ6 (Homo sapiens (Human), UniProt P06756+P18564)
Assay: Solid phase integrin αvβ6 binding assay
Settings: TGFβ1 LAP as ligand, IC50 presented in four ranges, read-out: αvβ6 Inhibition IC50 (nM) - range
Description: (§1) Microplates were coated with recombinant human integrin αvβ6 (2 μg/mL) in PBS (100 μL/well 25° C., overnight). The coating solution was removed, washed with wash buffer (0.05% Tween 20; 0.5 mM MnCl2; in 1×TBS). The plate was blocked with 200 μL/well of Block Buffer (1% BSA; 5% sucrose; 0.5 mM MnCl2; in 1×TBS) at 37° C. for 2 h. Dilutions of testing compounds and recombinant TGFβ1 LAP (0.67 μg/mL) in binding buffer (0.05% BSA; 2.5% sucrose; 0.5 mM MnCl2; in 1×TBS) were added. The plate was incubated for 2 hours at 25° C., washed, and incubated for 1 hour with Biotin-Anti-hLAP. Bound antibody was detected by peroxidase-conjugated streptavidin. The IC50 values for testing compounds were calculated by a four-parameter logistic regression.
The compounds tested were compound samples prepared according to procedures described in the Synthetic Examples section, with the stereochemical purity as indicated in the Examples.
as §1, with “A third series of exemplary compounds was selected for testing in the solid phase integrin αvβ6 binding assay. The compounds tested were compound samples prepared according to procedures described in the Synthetic Examples section, with the stereochemical purity as indicated in the Examples. As in Example B1, microplates” for “Microplates”

Sequence of recombinant human integrin αvβ6 (P06756 31-992): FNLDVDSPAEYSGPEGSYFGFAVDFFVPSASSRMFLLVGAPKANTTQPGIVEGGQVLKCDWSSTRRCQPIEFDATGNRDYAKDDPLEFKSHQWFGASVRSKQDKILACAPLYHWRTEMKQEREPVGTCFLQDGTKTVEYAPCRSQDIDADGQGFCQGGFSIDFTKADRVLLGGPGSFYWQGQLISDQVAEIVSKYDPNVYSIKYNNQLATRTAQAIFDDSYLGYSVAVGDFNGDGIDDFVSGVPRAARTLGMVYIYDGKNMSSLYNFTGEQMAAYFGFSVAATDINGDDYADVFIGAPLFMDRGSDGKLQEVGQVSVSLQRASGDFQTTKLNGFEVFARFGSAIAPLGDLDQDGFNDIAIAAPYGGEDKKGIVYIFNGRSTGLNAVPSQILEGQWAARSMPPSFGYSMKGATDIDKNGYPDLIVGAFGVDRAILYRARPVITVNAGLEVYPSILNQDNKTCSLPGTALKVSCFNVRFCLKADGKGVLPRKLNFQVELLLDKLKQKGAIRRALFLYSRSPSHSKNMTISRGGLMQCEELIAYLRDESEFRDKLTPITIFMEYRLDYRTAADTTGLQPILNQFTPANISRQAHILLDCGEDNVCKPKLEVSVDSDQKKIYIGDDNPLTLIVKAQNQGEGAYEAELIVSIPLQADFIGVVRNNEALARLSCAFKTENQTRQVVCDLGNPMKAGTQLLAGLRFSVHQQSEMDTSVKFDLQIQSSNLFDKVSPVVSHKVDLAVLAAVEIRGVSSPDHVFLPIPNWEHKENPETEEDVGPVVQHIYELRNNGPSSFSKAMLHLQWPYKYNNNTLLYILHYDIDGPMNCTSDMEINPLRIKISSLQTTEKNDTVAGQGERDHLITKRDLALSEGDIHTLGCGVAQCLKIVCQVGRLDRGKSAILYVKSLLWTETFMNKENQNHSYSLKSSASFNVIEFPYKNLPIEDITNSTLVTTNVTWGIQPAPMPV
Sequence of recombinant human integrin αvβ6 (P18564 22-707): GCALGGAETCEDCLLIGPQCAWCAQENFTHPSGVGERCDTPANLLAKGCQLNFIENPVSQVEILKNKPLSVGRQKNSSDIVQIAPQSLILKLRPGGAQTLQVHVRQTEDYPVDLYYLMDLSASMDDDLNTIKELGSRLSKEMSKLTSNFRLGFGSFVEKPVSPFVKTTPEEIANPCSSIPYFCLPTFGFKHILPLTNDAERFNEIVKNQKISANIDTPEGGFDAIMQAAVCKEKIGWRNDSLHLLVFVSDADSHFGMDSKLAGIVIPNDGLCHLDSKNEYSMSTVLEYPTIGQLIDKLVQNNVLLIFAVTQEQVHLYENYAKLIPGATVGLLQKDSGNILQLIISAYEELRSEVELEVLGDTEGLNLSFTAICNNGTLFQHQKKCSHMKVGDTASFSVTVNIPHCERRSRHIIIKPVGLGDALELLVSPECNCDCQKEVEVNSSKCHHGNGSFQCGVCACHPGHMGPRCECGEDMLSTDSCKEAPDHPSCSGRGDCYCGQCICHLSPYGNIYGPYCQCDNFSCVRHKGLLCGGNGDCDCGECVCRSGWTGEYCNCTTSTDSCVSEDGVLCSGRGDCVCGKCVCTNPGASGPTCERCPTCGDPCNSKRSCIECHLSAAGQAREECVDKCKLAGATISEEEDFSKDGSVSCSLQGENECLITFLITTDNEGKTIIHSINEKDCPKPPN

SMILES | IC50 [nM]
O=C(O)[C@H](CCN(CCCCc1ccc2c(n1)NCCC2)C1CC1)Nc1ccncn1 [Compound 2, (S)-4-(cyclopropyl(4-(5,6,7,8-tetrahydro-1,8-naphthyridin-2-yl)butyl)amino)-2-(pyrimidin-4-ylamino) butanoic acid] | 250 to 1000
CO[C@H](C)CN(CCCCc1ccc2c(n1)NCCC2)CC[C@H](Nc1ncncc1-c1ccccc1)C(=O)O [Compound 81, (S)-4-(((R)-2-methoxypropyl) (4-(5,6,7,8-tetrahydro-1,8-naphthyridin-2-yl)butyl)amino)-2-((5-phenylpyrimidin-4-yl)amino) butanoic acid] | < 50
COC[C@@H](F)CN(CCCCc1ccc2c(n1)NCCC2)CC[C@H](Nc1ncc(C#N)cn1)C(=O)O [Compound 84, (S)-2-((5-cyanopyrimidin-2-yl)amino)-4-(((S)-2-fluoro-3-methoxypropyl) (4-(5,6,7,8-tetrahydro-1,8-naphthyridin-2-yl)butyl)amino) butanoic acid] | 250 to 1000
Cn1ncc2c(N[C@@H](CCN(CCCCc3ccc4c(n3)NCCC4)CCS(C)(=O)=O)C(=O)O)ncnc21 [Compound 101, (S)-2-((1-methyl-1H-pyrazolo[3,4-d]pyrimidin-4-yl)amino)-4-((2-(methylsulfonyl)ethyl) (4-(5,6,7,8-tetrahydro-1,8-naphthyridin-2-yl)butyl)amino) butanoic acid] | 50 to 250
COC[C@@H](F)CN(CCCCc1ccc2c(n1)NCCC2)CC[C@H](Nc1ccncn1)C(=O)O [Compound 127, (S)-4-(((S)-2-fluoro-3-methoxypropyl) (4-(5,6,7,8-tetrahydro-1,8-naphthyridin-2-yl)butyl)amino)-2-(pyrimidin-4-ylamino) butanoic acid] | 250 to 1000
O=C(O)[C@H](CCN(CCCCc1ccc2c(n1)NCCC2)CCC(F)F)Nc1ncc(Br)cn1 [Compound 131, (S)-2-((5-bromopyrimidin-2-yl)amino)-4-((3,3-difluoropropyl) (4-(5,6,7,8-tetrahydro-1,8-naphthyridin-2-yl)butyl)amino) butanoic acid] | 50 to 250
O=C(O)[C@H](CCN(CCCCc1ccc2c(n1)NCCC2)CCC(F)F)Nc1ncc(C2CC2)cn1 [Compound 135, (S)-2-((5-cyclopropylpyrimidin-2-yl)amino)-4-((3,3-difluoropropyl) (4-(5,6,7,8-tetrahydro-1,8-naphthyridin-2-yl)butyl)amino) butanoic acid] | 50 to 250
